Data: patent publication US20240238242A1, “EGCG buccal tablet and use thereof” (priority 2023, published 2024)
Where “and” joins values, the source holds several entries; their conditions need not be identical. Equal values may be shown once.

System: Coronavirus (hCoV-229E)
Test: Inactivation efficiency against coronavirus hCoV-229E strain (residual TCID50 on Huh-7 cells)
Type: cell-based
Details: for CPE test (virus replication in cell wells): wells 1-10; for average inactivation efficiency against virus: three experiments

Compound: O=C(O[C@@H]1Cc2c(O)cc(O)cc2O[C@@H]1c1cc(O)c(O)c(O)c1)c1cc(O)c(O)c(O)c1 [EGCG, Epigallocatechin gallate]
- CPE test (virus replication in cell wells) (0.2 mM EGCG + hCoV-229E virus, co-incubated 1 minute, first experiment, dilution factor 10^1): +
- CPE test (virus replication in cell wells) (0.2 mM EGCG + hCoV-229E virus, co-incubated 1 minute, first experiment, dilution factor 10^2): +
- CPE test (virus replication in cell wells) (0.2 mM EGCG + hCoV-229E virus, co-incubated 1 minute, first experiment, dilution factor 10^3): +
- CPE test (virus replication in cell wells) (0.2 mM EGCG + hCoV-229E virus, co-incubated 1 minute, first experiment, dilution factor 10^4): +
- CPE test (virus replication in cell wells) (0.2 mM EGCG + hCoV-229E virus, co-incubated 1 minute, first experiment, dilution factor 10^5): − and +
- CPE test (virus replication in cell wells) (0.2 mM EGCG + hCoV-229E virus, co-incubated 1 minute, first experiment, dilution factor 10^6): −
- CPE test (virus replication in cell wells) (0.2 mM EGCG + hCoV-229E virus, co-incubated 1 minute, first experiment, dilution factor 10^7): −
- CPE test (virus replication in cell wells) (0.2 mM EGCG + hCoV-229E virus, co-incubated 1 minute, first experiment, dilution factor 10^8): −
- CPE test (virus replication in the cell wells) (0.2 mM EGCG + virus, co-incubated 5 minute, first experiment, dilution factor 10^1, wells 1-10): +
- CPE test (virus replication in the cell wells) (0.2 mM EGCG + virus, co-incubated 5 minute, first experiment, dilution factor 10^2, wells 1-10): +
- CPE test (virus replication in the cell wells) (0.2 mM EGCG + virus, co-incubated 5 minute, first experiment, dilution factor 10^3, wells 1-10): +
- CPE test (virus replication in the cell wells) (0.2 mM EGCG + virus, co-incubated 5 minute, first experiment, dilution factor 10^4, wells 1-10): +
- CPE test (virus replication in the cell wells) (0.2 mM EGCG + virus, co-incubated 5 minute, first experiment, dilution factor 10^5, wells 1-10): + and −
- CPE test (virus replication in the cell wells) (0.2 mM EGCG + virus, co-incubated 5 minute, first experiment, dilution factor 10^6, wells 1-10): + and −
- CPE test (virus replication in the cell wells) (0.2 mM EGCG + virus, co-incubated 5 minute, first experiment, dilution factor 10^7, wells 1-10): −
- CPE test (virus replication in the cell wells) (0.2 mM EGCG + virus, co-incubated 5 minute, first experiment, dilution factor 10^8, wells 1-10): −
- CPE test (virus replication in the cell wells) (0.2 mM EGCG + virus, co-incubated 5 minute, second experiment, dilution factor 10^1, wells 1-10): +
- CPE test (virus replication in the cell wells) (0.2 mM EGCG + virus, co-incubated 5 minute, second experiment, dilution factor 10^2, wells 1-10): +
- CPE test (virus replication in the cell wells) (0.2 mM EGCG + virus, co-incubated 5 minute, second experiment, dilution factor 10^3, wells 1-10): +
- CPE test (virus replication in the cell wells) (0.2 mM EGCG + virus, co-incubated 5 minute, second experiment, dilution factor 10^4, wells 1-10): +
- CPE test (virus replication in the cell wells) (0.2 mM EGCG + virus, co-incubated 5 minute, second experiment, dilution factor 10^5, wells 1-10): + and −
- CPE test (virus replication in the cell wells) (0.2 mM EGCG + virus, co-incubated 5 minute, second experiment, dilution factor 10^6, wells 1-10): − and +
- CPE test (virus replication in the cell wells) (0.2 mM EGCG + virus, co-incubated 5 minute, second experiment, dilution factor 10^7, wells 1-10): −
- CPE test (virus replication in the cell wells) (0.2 mM EGCG + virus, co-incubated 5 minute, second experiment, dilution factor 10^8, wells 1-10): −
- CPE test (virus replication in the cell wells) (0.2 mM EGCG + virus, co-incubated 5 minutes, dilution factor 10^1, wells 1-10, third experiment): +
- CPE test (virus replication in the cell wells) (0.2 mM EGCG + virus, co-incubated 5 minutes, dilution factor 10^2, wells 1-10, third experiment): +
- CPE test (virus replication in the cell wells) (0.2 mM EGCG + virus, co-incubated 5 minutes, dilution factor 10^3, wells 1-10, third experiment): +
- CPE test (virus replication in the cell wells) (0.2 mM EGCG + virus, co-incubated 5 minutes, dilution factor 10^4, wells 1-10, third experiment): + and −
- CPE test (virus replication in the cell wells) (0.2 mM EGCG + virus, co-incubated 5 minutes, dilution factor 10^5, wells 1-10, third experiment): +
- CPE test (virus replication in the cell wells) (0.2 mM EGCG + virus, co-incubated 5 minutes, dilution factor 10^6, wells 1-10, third experiment): − and +
- CPE test (virus replication in the cell wells) (0.2 mM EGCG + virus, co-incubated 5 minutes, dilution factor 10^7, wells 1-10, third experiment): −
- CPE test (virus replication in the cell wells) (0.2 mM EGCG + virus, co-incubated 5 minutes, dilution factor 10^8, wells 1-10, third experiment): −
- CPE test (virus replication in cell wells) (0.2 mM EGCG + virus, hCoV-229E co-incubated 1 minute, second experiment, dilution factor 10^1): +
- CPE test (virus replication in cell wells) (0.2 mM EGCG + virus, hCoV-229E co-incubated 1 minute, second experiment, dilution factor 10^2): +
- CPE test (virus replication in cell wells) (0.2 mM EGCG + virus, hCoV-229E co-incubated 1 minute, second experiment, dilution factor 10^3): +
- CPE test (virus replication in cell wells) (0.2 mM EGCG + virus, hCoV-229E co-incubated 1 minute, second experiment, dilution factor 10^4): +
- CPE test (virus replication in cell wells) (0.2 mM EGCG + virus, hCoV-229E co-incubated 1 minute, second experiment, dilution factor 10^5): + and −
- CPE test (virus replication in cell wells) (0.2 mM EGCG + virus, hCoV-229E co-incubated 1 minute, second experiment, dilution factor 10^6): −
- CPE test (virus replication in cell wells) (0.2 mM EGCG + virus, hCoV-229E co-incubated 1 minute, second experiment, dilution factor 10^7): −
- CPE test (virus replication in cell wells) (0.2 mM EGCG + virus, hCoV-229E co-incubated 1 minute, second experiment, dilution factor 10^8): −
- CPE test (virus replication in cell wells) (0.2 mM EGCG + virus, hCoV-229E co-incubated 1 minute, third experiment, dilution factor 10^1): +
- CPE test (virus replication in cell wells) (0.2 mM EGCG + virus, hCoV-229E co-incubated 1 minute, third experiment, dilution factor 10^2): +
- CPE test (virus replication in cell wells) (0.2 mM EGCG + virus, hCoV-229E co-incubated 1 minute, third experiment, dilution factor 10^3): +
- CPE test (virus replication in cell wells) (0.2 mM EGCG + virus, hCoV-229E co-incubated 1 minute, third experiment, dilution factor 10^4): +
- CPE test (virus replication in cell wells) (0.2 mM EGCG + virus, hCoV-229E co-incubated 1 minute, third experiment, dilution factor 10^5): − and +
- CPE test (virus replication in cell wells) (0.2 mM EGCG + virus, hCoV-229E co-incubated 1 minute, third experiment, dilution factor 10^6): + and −
- CPE test (virus replication in cell wells) (0.2 mM EGCG + virus, hCoV-229E co-incubated 1 minute, third experiment, dilution factor 10^7): −
- CPE test (virus replication in cell wells) (0.2 mM EGCG + virus, hCoV-229E co-incubated 1 minute, third experiment, dilution factor 10^8): −
- inactivation efficiency against the virus (0.2 mM EGCG, hCoV-229E virus, 1 minute, single experiment): 36.90% and 20.57%
- average inactivation efficiency against virus (0.2 mM EGCG, hCoV-229E virus, 1 minute): 31.46%
- average inactivation efficiency against virus (0.2 mM EGCG, hCoV-229E virus, 5 minutes): 13.71%
- CPE test (virus replication in cell wells) (1 mM EGCG + hCoV-229E virus, co-incubated 1 minute, first experiment, dilution factor 10^1): +
- CPE test (virus replication in cell wells) (1 mM EGCG + hCoV-229E virus, co-incubated 1 minute, first experiment, dilution factor 10^2): +
- CPE test (virus replication in cell wells) (1 mM EGCG + hCoV-229E virus, co-incubated 1 minute, first experiment, dilution factor 10^3): +
- CPE test (virus replication in cell wells) (1 mM EGCG + hCoV-229E virus, co-incubated 1 minute, first experiment, dilution factor 10^4): +
- CPE test (virus replication in cell wells) (1 mM EGCG + hCoV-229E virus, co-incubated 1 minute, first experiment, dilution factor 10^5): + and −
- CPE test (virus replication in cell wells) (1 mM EGCG + hCoV-229E virus, co-incubated 1 minute, first experiment, dilution factor 10^6): −
- CPE test (virus replication in cell wells) (1 mM EGCG + hCoV-229E virus, co-incubated 1 minute, first experiment, dilution factor 10^7): −
- CPE test (virus replication in cell wells) (1 mM EGCG + hCoV-229E virus, co-incubated 1 minute, first experiment, dilution factor 10^8): −
- CPE test (virus replication in the cell wells) (1 mM EGCG + virus, co-incubated 5 minute, first experiment, dilution factor 10^1, wells 1-10): +
- CPE test (virus replication in the cell wells) (1 mM EGCG + virus, co-incubated 5 minute, first experiment, dilution factor 10^2, wells 1-10): +
- CPE test (virus replication in the cell wells) (1 mM EGCG + virus, co-incubated 5 minute, first experiment, dilution factor 10^3, wells 1-10): +
- CPE test (virus replication in the cell wells) (1 mM EGCG + virus, co-incubated 5 minute, first experiment, dilution factor 10^4, wells 1-10): +
- CPE test (virus replication in the cell wells) (1 mM EGCG + virus, co-incubated 5 minute, first experiment, dilution factor 10^5, wells 1-10): − and +
- CPE test (virus replication in the cell wells) (1 mM EGCG + virus, co-incubated 5 minute, first experiment, dilution factor 10^6, wells 1-10): − and +
- CPE test (virus replication in the cell wells) (1 mM EGCG + virus, co-incubated 5 minute, first experiment, dilution factor 10^7, wells 1-10): −
- CPE test (virus replication in the cell wells) (1 mM EGCG + virus, co-incubated 5 minute, first experiment, dilution factor 10^8, wells 1-10): −
- CPE test (virus replication in the cell wells) (1 mM EGCG + virus, co-incubated 5 minute, second experiment, dilution factor 10^1, wells 1-10): +
- CPE test (virus replication in the cell wells) (1 mM EGCG + virus, co-incubated 5 minute, second experiment, dilution factor 10^2, wells 1-10): +
- CPE test (virus replication in the cell wells) (1 mM EGCG + virus, co-incubated 5 minute, second experiment, dilution factor 10^3, wells 1-10): +
- CPE test (virus replication in the cell wells) (1 mM EGCG + virus, co-incubated 5 minute, second experiment, dilution factor 10^4, wells 1-10): +
- CPE test (virus replication in the cell wells) (1 mM EGCG + virus, co-incubated 5 minute, second experiment, dilution factor 10^5, wells 1-10): + and −
- CPE test (virus replication in the cell wells) (1 mM EGCG + virus, co-incubated 5 minute, second experiment, dilution factor 10^6, wells 1-10): −
- CPE test (virus replication in the cell wells) (1 mM EGCG + virus, co-incubated 5 minute, second experiment, dilution factor 10^7, wells 1-10): −
